This note sets out measurements from ChEMBL document CHEMBL1201862, “PubChem BioAssay data set” (2004).

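Five compound concentrations were applied to cells in 96-well plates for 48 hours; endpoints were derived by simple linear interpolation of the resulting dose-response curve. Here, GI50 denotes the concentration required for 50% inhibition of growth.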 The source made the active and inactive calls. Rule as the data show it: active = GI50 up to about 1.1 µM and inactive = higher. Bounds are passed on as bounds.

Common to all, as to experiment: inhibition of tumour cell growth, NCI panel, 48 h
In assay [1] the test system is T47D.
The subject of assay [2] is HCT-116.
Assay [3] relates to HOP-92.
Assay [4] relates to BT-549.
Assay [5] concerns MOLT-4.
In assay [6] the test system is DU-145.
For assay [7], the system named is A498.
Assay [8] concerns UO-31.
Assay [9] relates to KM12.
Assay [10] relates to NCI-H226.
Assay [11] concerns Hs-578T.
Assay [12] concerns 786-0.
The test system of assay [13] is IGROV-1.
For assay [14], the system named is UACC-62.
For assay [15], the system named is U-251.
Assay [16] deals with HT-29.
Assay [17] concerns HCT-15.
Assay [18] deals with RPMI-8226.
Assay [19] relates to NCI-H460.
Assay [20] concerns SNB-75.

`COc1ccc(-c2cc(=O)c3c(O)c(OC)c(OC)c(OC)c3o2)cc1OC` [5-DEMETHYLNOBILETIN]: the GI50 was 4.28 µM (inactive) in [1]; > 100 µM (inactive) in assay [2]; 3.73 µM (inactive) in assay [3]; 50.9 µM (inactive) in [4]; > 100 µM (inactive) in [5]; > 100 µM (inactive) in assay [6]. The GI50 in assay [7] is > 100 µM (inactive); in [8] it was > 100 µM (inactive); in assay [9], > 100 µM (inactive); in [10], > 100 µM (inactive); in [11] it was 12.6 µM (inactive); in [12], 58.7 µM (inactive). Besides, the GI50 is 53.1 µM (inactive) in assay [13]; > 100 µM (inactive) in [14]; 39.7 µM (inactive) in assay [15]; > 100 µM (inactive) in [16]; greater than 100 µM in assay [17].

For the compound `CO/C=C(/C(=O)OC)c1ccccc1Oc1c(F)c(F)c(F)c(F)c1F`, the GI50 was 21.2 µM (inactive) in assay [1]; 22.9 µM (inactive) in assay [2]; 19.6 µM (inactive) in [3]; 16.8 µM (inactive) in assay [18]; > 100 µM (inactive) in assay [4]; 7.69 µM (inactive) in [5]. In addition, the GI50 is 33 µM (inactive) in assay [6]; 36.7 µM (inactive) in assay [7]; 32.2 µM (inactive) in assay [8]; 24 µM (inactive) in assay [9]; 38.2 µM (inactive) in assay [10]; 25.8 µM (inactive) in assay [11]. The GI50 in assay [12] is 33.7 µM (inactive); in assay [13] it was 29.3 µM (inactive); in assay [19] it was 31.6 µM (inactive); in assay [14], 21.9 µM (inactive); in assay [15], 44.7 µM (inactive); in [16], 32.4 µM (inactive). Also, the GI50 in [17] was 54.2 µM.

Regarding `CC[C@@H](C)[C@H](NC(=O)[C@H](Cc1ccccc1)NCC(F)(F)F)C(=O)OC(C)(C)C`, the GI50 in [1] is 25.6 µM (inactive); in [2] it was > 100 µM (inactive); in [3], > 100 µM (inactive); in assay [4] it was > 100 µM (inactive); in assay [5], 67.3 µM (inactive); in [6], > 100 µM (inactive). For the same compound, the GI50 in assay [7] is > 100 µM (inactive); in assay [8], > 100 µM (inactive); in assay [9], > 100 µM (inactive); in assay [10], 19.6 µM (inactive); in assay [11], > 100 µM (inactive); in assay [12], > 100 µM (inactive). The GI50 in assay [13] is > 100 µM (inactive); in [19] it was > 100 µM (inactive); in assay [14] it was 47.8 µM (inactive); in assay [15] it was > 100 µM (inactive); in [16], > 100 µM (inactive); in assay [17], greater than 100 µM.

As for `COc1ccccc1/N=N/C(=N/NC(=O)c1ccc(C)cc1)c1ccc(N(CCC#N)CCC#N)cc1OC`, the GI50 is 18.7 µM (inactive) in assay [1]; 25.1 µM (inactive) in [2]; 27.4 µM (inactive) in [3]; 14 µM (inactive) in assay [18]; 32.3 µM (inactive) in assay [4]; 19.1 µM (inactive) in assay [5]. The GI50 is 40.8 µM (inactive) in assay [6]; 22.2 µM (inactive) in [7]; 38.5 µM (inactive) in assay [8]; 26.8 µM (inactive) in assay [9]; 80 µM (inactive) in assay [10]; 56.4 µM (inactive) in assay [11]. Also, the GI50 in [12] was 31.7 µM (inactive); in [13], 37.6 µM (inactive); in assay [19] it was 29.5 µM (inactive); in assay [14], 38.3 µM (inactive); in assay [15], 32.5 µM (inactive); in [16], 33.1 µM (inactive). The compound also showed a GI50 in [17] of 42.3 µM.

For the compound `CC(=O)OC(Cc1c(O)c2c(C)cccc2oc1=O)C(C)(C)O` (stereo unspecified), the GI50 in [1] was 60.4 µM (inactive); in [2], 53.6 µM (inactive); in assay [18], > 100 µM (inactive); in [4], > 100 µM (inactive); in assay [5], 46.8 µM (inactive); in assay [6] it was > 100 µM (inactive). Also, the GI50 in [20] is 76 µM (inactive); in [7], > 100 µM (inactive); in [8], > 100 µM (inactive); in assay [9] it was > 100 µM (inactive); in assay [10] it was > 100 µM (inactive); in assay [11], > 100 µM (inactive). For the same compound, the GI50 in [12] is > 100 µM (inactive); in assay [13], > 100 µM (inactive); in assay [19], > 100 µM (inactive); in [14] it was 77.4 µM (inactive); in [15] it was > 100 µM (inactive); in assay [16], > 100 µM (inactive). Besides, the GI50 in assay [17] was greater than 100 µM.

For `C=C(C)COC1CCCCO1` (stereo unspecified), the GI50 in assay [1], in [2], in [18], in assay [4], in assay [5] and in [6] was > 100 µM (inactive) each time. Also, the GI50 in assay [20], in [7], in assay [8], in assay [9], in assay [10] and in [11] was > 100 µM (inactive) in each case. The GI50 in [12], in [13], in assay [19], in assay [14], in assay [15] and in assay [16] was > 100 µM (inactive) in each case. Also, the GI50 in assay [17] was greater than 100 µM.

In the case of `O=C(O)CCn1cnc2c(S)ncnc21`, the GI50 in assay [1], in assay [2], in assay [18], in assay [4], in assay [5] and in [6] was > 100 µM (inactive) in each case. Besides, the GI50 in [20], in assay [7], in assay [8], in assay [9], in assay [10] and in assay [11] was > 100 µM (inactive) each time. Moreover, the GI50 in assay [12], in [13], in assay [19], in assay [14], in assay [15] and in assay [16] was > 100 µM (inactive) each time. In assay [17], this compound gave a GI50 greater than 100 µM.

As for `CC1=C/C(O)CC(=O)Cc2nc(co2)C(=O)N2CCC=C2C(=O)OC(C(C)C)C(C)/C=C\C(=O)NC/C=C\1` (stereo unspecified), the GI50 is 12.2 µM (inactive) in assay [1]; 14.5 µM (inactive) in assay [2]; 12.9 µM (inactive) in assay [18]; 20.5 µM (inactive) in [4]; 16.6 µM (inactive) in assay [5]; 27.1 µM (inactive) in assay [6]. In addition, the GI50 in [20] was 11.3 µM (inactive); in assay [7], 23.6 µM (inactive); in [9] it was 12.4 µM (inactive); in assay [10] it was 17.7 µM (inactive); in [11], 20 µM (inactive); in assay [12], 20.8 µM (inactive). For the same compound, the GI50 in assay [13] is 16.6 µM (inactive); in [19] it was 54 µM (inactive); in assay [14], 16 µM (inactive); in [15] it was 35.8 µM (inactive); in assay [16], 15.5 µM (inactive); in assay [17], 19.8 µM.

In the case of `Nc1ccc(S(=O)(=O)C23CC4CC(CC(C4)C2)C3)cc1`, the GI50 in assay [1] is 34.1 µM (inactive); in assay [2] it was > 100 µM (inactive); in [18] it was 55.3 µM (inactive); in [4], > 100 µM (inactive); in assay [6], 78 µM (inactive); in assay [7] it was 23.1 µM (inactive). Moreover, the GI50 in [8], in [9], in assay [10], in assay [11], in assay [12] and in [13] was > 100 µM (inactive) in each case. For the same compound, the GI50 in assay [19] was 74.3 µM (inactive); in assay [14], > 100 µM (inactive); in assay [15], > 100 µM (inactive); in assay [16], > 100 µM (inactive); in [17] it was greater than 100 µM.

As for `CN1CCN(CCCN2c3ccccc3Sc3ccc(C(F)(F)F)cc32)CC1`, the GI50 was 6.1 µM (inactive) in [1]; 4.25 µM (inactive) in [2]; 12.1 µM (inactive) in assay [4]; 2.92 µM (inactive) in assay [5]; 10.5 µM (inactive) in [6]; 4.31 µM (inactive) in [20]. For the same compound, the GI50 in assay [7] was 12.6 µM (inactive); in assay [8], 6.32 µM (inactive); in [9], 2.94 µM (inactive); in [10], 13.2 µM (inactive); in assay [11], 3.4 µM (inactive); in [12] it was 4.14 µM (inactive). Also, the GI50 in [19] was 2.24 µM (inactive); in assay [14], 2.06 µM (inactive); in assay [15] it was 4.95 µM (inactive); in [16], 2.35 µM (inactive); in assay [17], 4.33 µM.

With `O=NN1CCCS1(=O)=O`, the GI50 in [1], in assay [2], in assay [18], in assay [4], in [5] and in assay [6] was > 100 µM (inactive) in each case. The GI50 in assay [20] is 12.6 µM (inactive); in assay [7], > 100 µM (inactive); in assay [8], 95.1 µM (inactive); in assay [9], > 100 µM (inactive); in assay [10], > 100 µM (inactive); in [11], > 100 µM (inactive). In addition, the GI50 in assay [12], in [13], in assay [19], in assay [14], in assay [15] and in [16] was > 100 µM (inactive) throughout. Also, the GI50 in assay [17] was greater than 100 µM.
